{
  "source": "BindingDB's records for doi:10.1021/acs.jmedchem.8b00277",
  "about": "(2018)",
  "data": [
    {"assay": "Inhibition of HIV1 NL4-3 protease assessed as decrease in viral replication in human MT2 cells after 4 days by luciferase reporter gene assay", "units": {"EC50": "nM"}, "values": [
      {"smiles": "COC(=O)N[C@H](C(=O)NN(Cc1ccc(-c2ccccn2)cc1)C[C@H](OC(=O)[C@@H](NC(=O)OC)C(C)(C)C)[C@H](Cc1ccccc1)NC(=O)OC(OC(=O)[C@@H](N)C(C)C)C(C)C)C(C)(C)C", "note": "(stereo partly drawn)", "EC50": 5.3},
      {"smiles": "COC(=O)N[C@H](C(=O)NN(Cc1ccc(-c2ccccn2)cc1)C[C@H](OC(=O)[C@@H](NC(=O)OC)C(C)(C)C)[C@@H](N)Cc1ccccc1)C(C)(C)C", "EC50": 1.8},
      {"smiles": "COC(=O)N[C@H](C(=O)N[C@@H](Cc1ccccc1)[C@@H](O)CN(Cc1ccc(-c2ccccn2)cc1)NC(=O)[C@@H](NC(=O)OC)C(C)(C)C)C(C)(C)C", "note": "[CGP 73547]", "EC50": 0.7}
    ]}
  ]
}
